tested on: Echinochloa crus-galli (ECHCG); experiment: Post-emergence herbicidal activity, glasshouse pot test; type: in vivo; settings: Echinochloa crus-galli, rate 125 g/ha, evaluated after 14 or 15 days, read-out: Post-emergence activity, ECHCG (100=total damage to plant; 0=no damage to plant)
Summary of the method: (§1)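 Damage rated visually on a 0–100 scale (100 = total damage) 14 or 15 days after spraying. Pots of sterilised standard soil; plants treated post-emergence after 10 days glasshouse cultivation with an aqueous spray from an acetone/Emulsogen EL/N-methylpyrrolidone/dipropylene glycol monomethyl ether/X-77 formulation.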

| SMILES | pest or weed control at 125 g/ha |
| --- | --- |
| CCc1cc(C)cc(CC)c1C1=C(OC(=O)OCC(C)(C)C)CC2(CCOCC2)CC1=O [Compound P19] | 100% |
| CCc1cc(C)cc(CC)c1C1=C(OC(=O)CCCCCCC(=O)OC)CC2(CCOCC2)CC1=O [Compound P46] | 100% |

same assay, conditions: Echinochloa crus-galli, rate 500 g/ha, evaluated after 14 or 15 days, read-out: Post-emergence activity, ECHCG (100=total damage to plant; 0=no damage to plant)

| SMILES | pest or weed control at 500 g/ha |
| --- | --- |
| CCCSC(C)CC1CC(=O)C(c2c(CC)cc(C)cc2CC)=C(O)C1 (stereo not drawn) [Compound T32] | 100% |

tested on: Setaria faberi (SETFA); experiment: as above; type: in vivo; settings: Setaria faberi, rate 125 g/ha, evaluated after 14 or 15 days, read-out: Post-emergence activity, SETFA (100=total damage to plant; 0=no damage to plant)
Summary of the method: as §1

| SMILES | pest or weed control at 125 g/ha |
| --- | --- |
| CCc1cc(C)cc(CC)c1C1=C(OC(=O)OCC(C)(C)C)CC2(CCOCC2)CC1=O [Compound P19] | 70% |
| CCc1cc(C)cc(CC)c1C1=C(OC(=O)CCCCCCC(=O)OC)CC2(CCOCC2)CC1=O [Compound P46] | 90% |

same assay, conditions: Setaria faberi, rate 500 g/ha, evaluated after 14 or 15 days, read-out: Post-emergence activity, SETFA (100=total damage to plant; 0=no damage to plant)

| SMILES | pest or weed control at 500 g/ha |
| --- | --- |
| CCCSC(C)CC1CC(=O)C(c2c(CC)cc(C)cc2CC)=C(O)C1 (stereo not drawn) [Compound T32] | 100% |

tested on: Digitaria sanguinalis (DIGSA); experiment: as above; type: in vivo; settings: Digitaria sanguinalis, rate 125 g/ha, evaluated after 14 or 15 days, read-out: Post-emergence activity, DIGSA (100=total damage to plant; 0=no damage to plant)
Summary of the method: as §1

| SMILES | pest or weed control at 125 g/ha |
| --- | --- |
| CCc1cc(C)cc(CC)c1C1=C(OC(=O)OCC(C)(C)C)CC2(CCOCC2)CC1=O [Compound P19] | 70% |
| CCc1cc(C)cc(CC)c1C1=C(OC(=O)CCCCCCC(=O)OC)CC2(CCOCC2)CC1=O [Compound P46] | 90% |

same assay, conditions: Digitaria sanguinalis, rate 500 g/ha, evaluated after 14 or 15 days, read-out: Post-emergence activity, DIGSA (100=total damage to plant; 0=no damage to plant)

| SMILES | pest or weed control at 500 g/ha |
| --- | --- |
| CCCSC(C)CC1CC(=O)C(c2c(CC)cc(C)cc2CC)=C(O)C1 (stereo not drawn) [Compound T32] | 100% |

tested on: Lolium perenne (LOLPE); experiment: as above; type: in vivo; settings: Lolium perenne, rate 125 g/ha, evaluated after 14 or 15 days, read-out: Post-emergence activity, LOLPE (100=total damage to plant; 0=no damage to plant)
Summary of the method: as §1

| SMILES | pest or weed control at 125 g/ha |
| --- | --- |
| CCc1cc(C)cc(CC)c1C1=C(OC(=O)OCC(C)(C)C)CC2(CCOCC2)CC1=O [Compound P19] | 90% |
| CCc1cc(C)cc(CC)c1C1=C(OC(=O)CCCCCCC(=O)OC)CC2(CCOCC2)CC1=O [Compound P46] | 90% |

same assay, conditions: Lolium perenne, rate 500 g/ha, evaluated after 14 or 15 days, read-out: Post-emergence activity, LOLPE (100=total damage to plant; 0=no damage to plant)

| SMILES | pest or weed control at 500 g/ha |
| --- | --- |
| CCCSC(C)CC1CC(=O)C(c2c(CC)cc(C)cc2CC)=C(O)C1 (stereo not drawn) [Compound T32] | 90% |

tested on: Alopecurus myosuroides (ALOMY); experiment: as above; type: in vivo; settings: Alopecurus myosuroides, rate 125 g/ha, evaluated after 14 or 15 days, read-out: Post-emergence activity, ALOMY (100=total damage to plant; 0=no damage to plant)
Summary of the method: as §1

| SMILES | pest or weed control at 125 g/ha |
| --- | --- |
| CCc1cc(C)cc(CC)c1C1=C(OC(=O)OCC(C)(C)C)CC2(CCOCC2)CC1=O [Compound P19] | 90% |
| CCc1cc(C)cc(CC)c1C1=C(OC(=O)CCCCCCC(=O)OC)CC2(CCOCC2)CC1=O [Compound P46] | 90% |

same assay, conditions: Alopecurus myosuroides, rate 500 g/ha, evaluated after 14 or 15 days, read-out: Post-emergence activity, ALOMY (100=total damage to plant; 0=no damage to plant)

| SMILES | pest or weed control at 500 g/ha |
| --- | --- |
| CCCSC(C)CC1CC(=O)C(c2c(CC)cc(C)cc2CC)=C(O)C1 (stereo not drawn) [Compound T32] | 80% |

tested on: Avena fatua (AVEFA); experiment: as above; type: in vivo; settings: Avena fatua, rate 125 g/ha, evaluated after 14 or 15 days, read-out: Post-emergence activity, AVEFA (100=total damage to plant; 0=no damage to plant)
Summary of the method: as §1

| SMILES | pest or weed control at 125 g/ha |
| --- | --- |
| CCc1cc(C)cc(CC)c1C1=C(OC(=O)OCC(C)(C)C)CC2(CCOCC2)CC1=O [Compound P19] | 90% |
| CCc1cc(C)cc(CC)c1C1=C(OC(=O)CCCCCCC(=O)OC)CC2(CCOCC2)CC1=O [Compound P46] | 100% |

same assay, conditions: Avena fatua, rate 500 g/ha, evaluated after 14 or 15 days, read-out: Post-emergence activity, AVEFA (100=total damage to plant; 0=no damage to plant)

| SMILES | pest or weed control at 500 g/ha |
| --- | --- |
| CCCSC(C)CC1CC(=O)C(c2c(CC)cc(C)cc2CC)=C(O)C1 (stereo not drawn) [Compound T32] | 80% |

tested on: Echinochloa crus-galli (ECHCG); experiment: Pre-emergence herbicidal activity, glasshouse pot test; type: in vivo; settings: Echinochloa crus-galli, 480 h, rate 500 g/ha, evaluated after 20 days, read-out: Pre-emergence activity, ECHCG (100=total damage to plant; 0=no damage to plant)
Summary of the method: (§2)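 One day after sowing in sterilised soil, pots receive an aqueous spray made from the compound dissolved in acetone and a formulation of emulsifier, N-methylpyrrolidone, glycol ether and X-77 wetter. Injury is assessed 20 days later against untreated expectations, scored from 0 (no damage) to 100.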

| SMILES | pest or weed control at 500 g/ha |
| --- | --- |
| CCCSC(C)CC1CC(=O)C(c2c(CC)cc(C)cc2CC)=C(O)C1 (stereo not drawn) [Compound T32] | 100% |
| CCc1cc(C)cc(CC)c1C1=C(OC(=O)OCC(C)(C)C)CC2(CCOCC2)CC1=O [Compound P19] | 100% |
| CCc1cc(C)cc(CC)c1C1=C(OC(=O)CCCCCCC(=O)OC)CC2(CCOCC2)CC1=O [Compound P46] | 100% |

tested on: Setaria faberi (SETFA); experiment: as above; type: in vivo; settings: Setaria faberi, 480 h, rate 500 g/ha, evaluated after 20 days, read-out: Pre-emergence activity, SETFA (100=total damage to plant; 0=no damage to plant)
Summary of the method: as §2

| SMILES | pest or weed control at 500 g/ha |
| --- | --- |
| CCCSC(C)CC1CC(=O)C(c2c(CC)cc(C)cc2CC)=C(O)C1 (stereo not drawn) [Compound T32] | 100% |
| CCc1cc(C)cc(CC)c1C1=C(OC(=O)OCC(C)(C)C)CC2(CCOCC2)CC1=O [Compound P19] | 100% |
| CCc1cc(C)cc(CC)c1C1=C(OC(=O)CCCCCCC(=O)OC)CC2(CCOCC2)CC1=O [Compound P46] | 100% |

tested on: Digitaria sanguinalis (DIGSA); experiment: as above; type: in vivo; settings: Digitaria sanguinalis, 480 h, rate 500 g/ha, evaluated after 20 days, read-out: Pre-emergence activity, DIGSA (100=total damage to plant; 0=no damage to plant)
Summary of the method: as §2

| SMILES | pest or weed control at 500 g/ha |
| --- | --- |
| CCCSC(C)CC1CC(=O)C(c2c(CC)cc(C)cc2CC)=C(O)C1 (stereo not drawn) [Compound T32] | 100% |
| CCc1cc(C)cc(CC)c1C1=C(OC(=O)OCC(C)(C)C)CC2(CCOCC2)CC1=O [Compound P19] | 100% |
| CCc1cc(C)cc(CC)c1C1=C(OC(=O)CCCCCCC(=O)OC)CC2(CCOCC2)CC1=O [Compound P46] | 100% |

tested on: Lolium perenne (LOLPE); experiment: as above; type: in vivo; settings: Lolium perenne, 480 h, rate 500 g/ha, evaluated after 20 days, read-out: Pre-emergence activity, LOLPE (100=total damage to plant; 0=no damage to plant)
Summary of the method: as §2

| SMILES | pest or weed control at 500 g/ha |
| --- | --- |
| CCCSC(C)CC1CC(=O)C(c2c(CC)cc(C)cc2CC)=C(O)C1 (stereo not drawn) [Compound T32] | 100% |
| CCc1cc(C)cc(CC)c1C1=C(OC(=O)OCC(C)(C)C)CC2(CCOCC2)CC1=O [Compound P19] | 100% |
| CCc1cc(C)cc(CC)c1C1=C(OC(=O)CCCCCCC(=O)OC)CC2(CCOCC2)CC1=O [Compound P46] | 100% |

tested on: Alopecurus myosuroides (ALOMY); experiment: as above; type: in vivo; settings: Alopecurus myosuroides, 480 h, rate 500 g/ha, evaluated after 20 days, read-out: Pre-emergence activity, ALOMY (100=total damage to plant; 0=no damage to plant)
Summary of the method: as §2

| SMILES | pest or weed control at 500 g/ha |
| --- | --- |
| CCCSC(C)CC1CC(=O)C(c2c(CC)cc(C)cc2CC)=C(O)C1 (stereo not drawn) [Compound T32] | 90% |
| CCc1cc(C)cc(CC)c1C1=C(OC(=O)OCC(C)(C)C)CC2(CCOCC2)CC1=O [Compound P19] | 100% |
| CCc1cc(C)cc(CC)c1C1=C(OC(=O)CCCCCCC(=O)OC)CC2(CCOCC2)CC1=O [Compound P46] | 100% |

tested on: Avena fatua (AVEFA); experiment: as above; type: in vivo; settings: Avena fatua, 480 h, rate 500 g/ha, evaluated after 20 days, read-out: Pre-emergence activity, AVEFA (100=total damage to plant; 0=no damage to plant)
Summary of the method: as §2

| SMILES | pest or weed control at 500 g/ha |
| --- | --- |
| CCCSC(C)CC1CC(=O)C(c2c(CC)cc(C)cc2CC)=C(O)C1 (stereo not drawn) [Compound T32] | 80% |
| CCc1cc(C)cc(CC)c1C1=C(OC(=O)OCC(C)(C)C)CC2(CCOCC2)CC1=O [Compound P19] | 100% |
| CCc1cc(C)cc(CC)c1C1=C(OC(=O)CCCCCCC(=O)OC)CC2(CCOCC2)CC1=O [Compound P46] | 100% |

Source: patent US8084649B2, “Herbicides” (Syngenta Crop Protection, inc., priority 2007, dated 2011)
